Values after ≈ are worked out from the molar mass of the structure shown. Read-outs that look alike come from different tables or passages of the source. Non-standard residues stand in square brackets, D forms with d. Residues, ends and D or L forms follow the SMILES beside them. *: point of attachment. Stearoyl = CCCCCCCCCCCCCCCCCC(=O)*; Palmitoyl = CCCCCCCCCCCCCCCC(=O)*; Myristoyl = CCCCCCCCCCCCCC(=O)*; Octanoyl = CCCCCCCC(=O)*; Orn = NCCC[C@H](N)C(=O)O; Hexanoyl = CCCCCC(=O)*; Butyryl = CCCC(=O)*
Assays:
Hemolytic assay = format: cell-based, rat
Procedure: The blood cells were washed three times with PBS, where the volume of PBS was the same as that of the original blood, by gently turning the centrifuge tube upside down. After washing, ten microliters of blood cells were diluted 2,000-fold in PBS to count the cells. Finally, red blood cells were diluted to 5 × 10^8 cells/mL in PBS. Peptides were dissolved in water and filtered through a 0.2-μm filter to make a stock solution. The peptide concentration was quantitated by the UV280. The peptide solution was diluted in PBS to different concentrations (five times the tested concentrations). Twenty microliters of the peptide in PBS was mixed with 80 μL of red blood cell solution in a 96-well plate (V-bottom). The final peptide concentration was 16–256 μg/mL. In the positive control group, 20 μL of 5% Triton X-100 was added to the red blood cell solution for a final Triton X-100 concentration of 1%. For the negative control group, 20 μL of PBS solution was added. The 96-well plate was incubated at 37°C for 45 min. After centrifuging the 96-well plate at 1,500 × g for 5 min, 30 μL of the supernatant was mixed with 100 μL of deionized water in a 96-well plate (flat bottom). The concentration of heme in each well was measured by the UV405 using an Infinite M1000 pro (Tecan Austria GmbH, Austria). The hemolytic activity was calculated using the following formula. Hemolyticactivity=[(F-F0)/(Ft-F0)]×100% F is the UV405 of the peptide-treated sample F0 is the UV405 of the sample without peptide (negative control) Ft is the UV405 of the Triton-treated sample (positive control)

A. baumannii ATCC 17978 = format: cell-based, Acinetobacter baumannii
Procedure: Following CLSI guideline M07-A11, single bacterial colonies of A. baumannii ATCC 17978 grown on Müller–Hinton agar (MHA) plates were picked and inoculated in 4 mL of Müller–Hinton broth (MHB) at 37°C and shaken at 180 rpm for 4∼6 h. The bacterial broth was diluted in the same medium to give a cell density of 1∼2 × 10^8 CFU/mL (OD600 = 0.38∼0.4 for A. baumannii) (Supplementary Figure 1; [Dillon et al., 2020]). Then, the broth was diluted 20-fold. Peptides were dissolved in water and filtered through a 0.2-μm filter to make a stock solution. The peptide concentration was quantified by the UV280. Then, the peptide solution was serially diluted in MHB to final peptide concentrations of 1, 2, 4, 8, 16, and 32 μg/mL. One hundred microliters of serially diluted peptide and 10 μL of bacterial culture were mixed in a 96-well polystyrene plate. Each well contained approximately 5 × 10^5 CFU/mL. The positive control was a mixture of 100 μL of MHB and 10 μL of the bacterial culture. The negative control was 110 μL of MHB. The plates were incubated at 37°C without shaking. […] The bacterium-peptide mixtures (the mixture without visible growth and the mixture containing a two-fold […] peptide concentration than the mixture without growth), positive control, and negative control (3 μL each) were spotted on an MHA plate and incubated at 37°C for 24 h. The MBC was determined as the lowest peptide concentration at which no colonies formed.
The MIC and MBC of our designed peptides against A. baumannii were obtained by using the broth microdilution method in the CLSI protocol. The bacterial cell number was carefully counted, and a final cell density of 5 × 10^5 CFU/mL in each well was used in the MIC test (Supplementary Figure 1). The minimal peptide concentration at which no bacterial growth was observed was taken as the MIC value. The culture after peptide treatment was spotted on an MHA plate, and the peptide concentration that could kill all the bacteria was defined as the MBC. The MIC/MBC and hemolytic activity of these peptides are shown and compared in Figure 1.

in vitro = in vitro ADME, rat; conditions: for half-life at 0.6 mg/mL: rat plasma, room temperature
Procedure: EDTA-treated rat whole blood was centrifuged at 4°C and 840 × g for 5 min, and then the blood cells were removed ([[…] et al., 2019]). The supernatant was placed in an Eppendorf tube and centrifuged at 4°C and 13,000 rpm for 10 min to remove lipids (white precipitate). The supernatant was filtered through a 0.2-μm filter. The peptide was dissolved in water and filtered through a 0.2-μm filter. The peptide concentration was quantified by the UV280 to make a 1 mg/mL stock solution. […] At the indicated time, the peptide was analyzed by HPLC with a C18 column using a linear gradient of 20-65% B over 15 min. Solution A: 5% acetonitrile plus 0.1% trifluoroacetic acid in water; solution B: 0.1% trifluoroacetic acid in acetonitrile.

HEK293 cells = format: cell-based, human
Procedure: Cell viability assays were performed by using the CellTiter 96® AQueous Non-Radioactive Cell Proliferation Assay (Promega, United States), in which 3-(4,5-dimethylthiazol-2-yl)-5-(3-carboxymethoxyphenyl)-2-(4-sulfophenyl)-2H-tetrazolium salt (MTS) can be reduced to purple-colored formazan by intact cells. […] The test peptide was dissolved in water and filtered through a 0.2-μm filter. The peptide concentration was quantitated by the UV280 to make a 5,120 μg/mL stock solution and then serially diluted in serum-free DMEM. On the second day, the medium was replaced with 100 μL of serum-free DMEM containing different peptide concentrations and incubated for 1 or 24 h. Serum-free DMEM without peptide was used as a negative control and medium containing 1% Triton X-100 was used as a positive control. One milligram of MTS powder was dissolved in 0.5 mL of Dulbecco’s phosphate-buffered saline (DPBS). The MTS solution was mixed with one-twentieth of a phenazine methosulfate (PMS) solution ([…]). To each well, 20 μL of the MTS/PMS solution was added. After 3 h, the absorbance was measured with an Infinite M1000 pro (Tecan Austria GmbH, Austria) at a wavelength of 490 nm. Cell viability was calculated using the following equation. Cellviability=[(A-Ap)/(An-Ap)]×100% A is the UV490 of the peptide-treated sample An is the UV490 of the sample without peptide (negative control) Ap is the UV490 of the Triton-treated sample (positive control)

A. baumannii 19606 = tested on: A. baumannii 19606; parameters: method as in Feng et al., 2013; conditions: ref Feng et al., 2013; cited from earlier work
A. baumannii = tested on: A. baumannii; parameters: method as in Sato et al., 2018; conditions: ref Sato et al., 2018; cited from earlier work
[1] = rat red blood cells, 256 μg/mL peptide, 37°C 45 min, read-out: Hemolysis (%) at 256 μg/mL

| Compound | MBC A. baumannii 17978 (A. baumannii ATCC 17978; ATCC 17978, 24 h) | hemolysis at 45 min, 256 μg/mL (Hemolytic assay; rat) [%] | other results |
| --- | --- | --- | --- |
| CC(=O)N[C@@H](Cc1c[nH]c2ccccc12)C(=O)N[C@H](CCCCN)C(=O)N[C@H](CCCCN)C(=O)N[C@H](CC(C)C)C(=O)N[C@H](CCCCN)C(=O)N[C@H](CCCCN)C(=O)N[C@H](CC(C)C)C(=O)N[C@H](CC(C)C)C(=O)N[C@H](CCCCN)C(=O)N[C@H](CCCCN)C(=O)N[C@H](CC(C)C)C(=O)N[C@H](CCCCN)C(=O)N[C@H](CCCCN)C(=O)N[C@H](CC(C)C)C(N)=O [pepdD2, Ac-Wkklkkllkklkkl-NH2] (Ac-W[dK][dK][dL][dK][dK][dL][dL][dK][dK][dL][dK][dK][dL]-NH2) | 8 µg/mL (≈ 4.36 µM) |  | hemolysis at 45 min, 256 μg/mL (Hemolytic assay; [1]): 2.9%; Extension of peptide half-life in plasma (in vitro): more than 12 fold; remaining at 72 h, 0.6 mg/mL (in vitro; rat, plasma): ~90%; half-life at 0.6 mg/mL (in vitro; rat, plasma): 290 h; HEK293 IC50 (HEK293 cells; 1 h): 40.2 µg/mL; HEK293 IC50 (HEK293 cells; 24 h): 20.6 µg/mL |
| CCCC(=O)N[C@@H](Cc1c[nH]c2ccccc12)C(=O)N[C@@H](CCCCN)C(=O)N[C@@H](CCCCN)C(=O)N[C@@H](CC(C)C)C(=O)N[C@@H](CCCCN)C(=O)N[C@@H](CCCCN)C(=O)N[C@@H](CC(C)C)C(=O)N[C@@H](CC(C)C)C(=O)N[C@@H](CCCCN)C(=O)N[C@@H](CCCCN)C(=O)N[C@@H](CC(C)C)C(N)=O [pepD3B] (Butyryl-WKKLKKLLKKL-NH2) | 8 µg/mL (≈ 5.35 µM) | 7.89 |  |
| CCCCCCCCCCCCCCCCCC(=O)N[C@@H](Cc1c[nH]c2ccccc12)C(=O)N[C@@H](CCCCN)C(=O)N[C@@H](CCCCN)C(=O)N[C@@H](CC(C)C)C(=O)N[C@@H](CCCCN)C(=O)N[C@@H](CCCCN)C(=O)N[C@@H](CC(C)C)C(=O)N[C@@H](CC(C)C)C(=O)N[C@@H](CCCCN)C(=O)N[C@@H](CCCCN)C(=O)N[C@@H](CC(C)C)C(=O)N[C@@H](CCCCN)C(=O)N[C@@H](CCCCN)C(=O)N[C@@H](CC(C)C)C(N)=O [pepD2S] (Stearoyl-WKKLKKLLKKLKKL-NH2) |  | 60.7 |  |
| CC(=O)N[C@@H](Cc1c[nH]c2ccccc12)C(=O)N[C@@H](CCCN)C(=O)N[C@@H](CCCN)C(=O)N[C@@H](CC(C)C)C(=O)N[C@@H](CCCN)C(=O)N[C@@H](CCCN)C(=O)N[C@@H](CC(C)C)C(=O)N[C@@H](CC(C)C)C(=O)N[C@@H](CCCN)C(=O)N[C@@H](CCCN)C(=O)N[C@@H](CC(C)C)C(=O)N[C@@H](CCCN)C(=O)N[C@@H](CCCN)C(=O)N[C@@H](CC(C)C)C(N)=O [pepO2, Ac-WOOLOOLLOOLOOL-NH2] (Ac-W[Orn][Orn]L[Orn][Orn]LL[Orn][Orn]L[Orn][Orn]L-NH2) | 8 µg/mL (≈ 4.64 µM) | 0.23 |  |
| CCCCCC(=O)N[C@@H](Cc1c[nH]c2ccccc12)C(=O)N[C@@H](CCCCN)C(=O)N[C@@H](CCCCN)C(=O)N[C@@H](CC(C)C)C(=O)N[C@@H](CCCCN)C(=O)N[C@@H](CCCCN)C(=O)N[C@@H](CC(C)C)C(=O)N[C@@H](CC(C)C)C(=O)N[C@@H](CCCCN)C(=O)N[C@@H](CCCCN)C(=O)N[C@@H](CC(C)C)C(N)=O [pepD3H] (Hexanoyl-WKKLKKLLKKL-NH2) | 8 µg/mL (≈ 5.25 µM) | 54.1 |  |
| CCCCCCCCCCCCCCCC(=O)N[C@@H](Cc1c[nH]c2ccccc12)C(=O)N[C@@H](CCCCN)C(=O)N[C@@H](CCCCN)C(=O)N[C@@H](CC(C)C)C(=O)N[C@@H](CCCCN)C(=O)N[C@@H](CCCCN)C(=O)N[C@@H](CC(C)C)C(=O)N[C@@H](CC(C)C)C(=O)N[C@@H](CCCCN)C(=O)N[C@@H](CCCCN)C(=O)N[C@@H](CC(C)C)C(=O)N[C@@H](CCCCN)C(=O)N[C@@H](CCCCN)C(=O)N[C@@H](CC(C)C)C(N)=O [pepD2P] (Palmitoyl-WKKLKKLLKKLKKL-NH2) |  | 83.5 |  |
| CCCCCCCCCCCCCC(=O)N[C@@H](Cc1c[nH]c2ccccc12)C(=O)N[C@@H](CCCCN)C(=O)N[C@@H](CCCCN)C(=O)N[C@@H](CC(C)C)C(=O)N[C@@H](CCCCN)C(=O)N[C@@H](CCCCN)C(=O)N[C@@H](CC(C)C)C(=O)N[C@@H](CC(C)C)C(=O)N[C@@H](CCCCN)C(=O)N[C@@H](CCCCN)C(=O)N[C@@H](CC(C)C)C(=O)N[C@@H](CCCCN)C(=O)N[C@@H](CCCCN)C(=O)N[C@@H](CC(C)C)C(N)=O [pepD2M] (Myristoyl-WKKLKKLLKKLKKL-NH2) |  | 93.6 |  |
| LL-37: natural human antimicrobial peptide |  |  | MIC against A. baumannii 19606 (A. baumannii 19606): 16 µg/mL |
| Ac-WKKLKKLLKKL-NH2 [pepD3] | 8 µg/mL |  | hemolysis at 45 min, 256 μg/mL (Hemolytic assay; [1]): 3.15%; half-life at 0.6 mg/mL (in vitro; rat, plasma): 19.1 h; HEK293 IC50 (HEK293 cells; 1 h): 49.5 µg/mL; HEK293 IC50 (HEK293 cells; 24 h): 68.1 µg/mL |
| CCCCCCCC(=O)N[C@@H](Cc1c[nH]c2ccccc12)C(=O)N[C@@H](CCCCN)C(=O)N[C@@H](CCCCN)C(=O)N[C@@H](CC(C)C)C(=O)N[C@@H](CCCCN)C(=O)N[C@@H](CCCCN)C(=O)N[C@@H](CC(C)C)C(=O)N[C@@H](CC(C)C)C(=O)N[C@@H](CCCCN)C(=O)N[C@@H](CCCCN)C(=O)N[C@@H](CC(C)C)C(N)=O [pepD3O] (Octanoyl-WKKLKKLLKKL-NH2) | 8 µg/mL (≈ 5.16 µM) | 86 |  |
| Ac-WRRLRRLLRRLRRL-NH2 [pepR2] | 8 µg/mL | 106 |  |
| Ac-WKKVKKVVKKVKKV-NH2 [pepV2] | 32 µg/mL | 0.31 |  |
| colistin sulfate |  |  | MIC against A. baumannii (A. baumannii): 2 µg/mL |
| Ac-WKKLKKLLKKLKKL-NH2 [pepD2] | 8/8 μg/mL |  | hemolysis at 45 min, 256 μg/mL (Hemolytic assay; [1]): 9.6%; MIC A. baumannii 17978 (A. baumannii ATCC 17978; MHB, 20 h, 5 × 10^5 CFU/mL): 8 µg/mL; MBC A. baumannii 17978 (A. baumannii ATCC 17978; spotted on MHA plate, 24 h): 8 µg/mL; half-life at 0.6 mg/mL (in vitro; rat, plasma): 23.1 h; HEK293 IC50 (HEK293 cells; 1 h): 29.1 µg/mL; HEK293 IC50 (HEK293 cells; 24 h): 37.3 µg/mL |
